Laboratory results from patent US12227479B2, “Dihydropyridines for the treatment of cognitive impairment or traumatic brain injury” (Icahn School of Medicine at Mount Sinai, priority 2017, dated 2025).
“And” between values parts separate entries of the source, which are not always exact repeats. Equal values may be shown once. “Also recorded” adds a separate entry of the source. Read-outs that look alike come from different tables or passages of the source.

Legend:
synj1 5′-promoter region = test: synj1 5′-promoter luciferase assay (GLuc/SEAP dual reporter) in ApoE4 cortical neurons; type: cell-based; settings: for inhibition of synj1 transcription activities: luciferase assay; for IC50: Cortical neurone, ApoE4 cortical neurons, 48 hours treatment, read-out: IC50 (synj1 transcriptional activity, luciferase assay)
Procedure: The in vitro luciferase assay uses a dual reporter system of Gaussia luciferase (GLuc) and secreted alkaline phosphatase (SEAP) tagged synj1 5′-promoter region. […] (FIG. 2). DMSO-treated conditions were used as controls and results were presented as percentage of the control (±SEM). One-way ANOVA was performed followed by post-hoc multiple comparison tests to determine the significance of differences between drug-treated vs DMSO control. *p<0.05; N=5-17/condition.

synj1 [1] = test: Western blot of synj1 protein levels in wt cortical neurons; type: cell-based
Procedure: Results were determined by measuring the synj1 protein levels as a percentage of the control (±SEM). One-way ANOVA was performed followed by post-hoc multiple comparison tests to determine the significance of differences between drug-treated vs DMSO control. **p<0.01; N=4-17/condition. […] DMSO-treated conditions were used as controls and results were presented as percentage of the control (±SEM). […] FIGS. 3A, B and C). […] FIGS. 3A, B and C). […] D) In vitro calcium channel inhibition assays. Results were presented as percentage of inhibition (±SEM). […] One-way ANOVA was performed followed by post-hoc multiple comparison tests to determine the significance of differences between drug-treated vs DMSO control. *p<0.05, **p<0.01, ***p<0.001; N=3/condition except in A) nimodipine-treated conditions with N=20.

Aβ40 [2] = test: ELISA of Aβ40 levels in wt cortical neuronal culture; type: cell-based; settings: wt cortical neurons
Procedure: (§1) DMSO-treated conditions were used as controls and results were presented as percentage of the control (±SEM). […] FIGS. 3A, B and C). […] FIGS. 3A, B and C). […] D) In vitro calcium channel inhibition assays. Results were presented as percentage of inhibition (±SEM). […] One-way ANOVA was performed followed by post-hoc multiple comparison tests to determine the significance of differences between drug-treated vs DMSO control. *p<0.05, **p<0.01, ***p<0.001; N=3/condition except in A) nimodipine-treated conditions with N=20.

Aβ42 [3] = test: ELISA of Aβ42 levels in wt cortical neuronal culture; type: cell-based; settings: 10 μM, wt cortical neurons
Procedure: as §1

synj1 [4] = test: Long-term daily IP treatment of AD transgenic mice: cortical brain synj1 levels; type: in vivo; settings: APP/PS1 transgenic mouse, 2.5 mg/kg/day IP for 6 months, compared to Tg vehicle controls
Procedure: (§2) Data is presented as % of wt control (vehicle-treated) time spent exploring novel objects. N=13-15/group. C) Cortical brain synj1 levels as well as D) PIP2 levels in Tg mice (vehicle-, nimodipine- or Example 9-treated) were compared to vehicle-treated controls (as 100%) in wildtype (wt) mice. N=7-13/group. One-way ANOVA was performed followed by post-hoc multiple comparison tests to determine the significance of differences between pairs of means. *p<0.05, **p<0.01, ***p<0.001, ****p<0.0001.

Aβ40 [5] = test: Long-term daily IP treatment of AD transgenic mice: brain Aβ40 levels; type: in vivo, mouse; settings: 2.5 mg/kg/day IP for 6 months
Procedure: (§3) N=5-7/group. […] One-way ANOVA was performed followed by post-hoc multiple comparison tests to determine the significance of differences between drug-treated vs DMSO control. *p<0.05, **p<0.01.

[6] = Brain and blood exposure after PO administration to male CD-1 mice; type: in vivo, mouse; settings: for concentration at 1 h / concentration at 3 h / Kp at 1 h / Kp at 3 h: mouse, PO 30 mg/kg, male CD-1 mice; for Kp at 1 h / Kp at 3 h: brain/blood, read-out: Brain/Blood ratio
in vivo = settings: male, CD-1, mouse
wt cortical neurons = test: Observed toxicity in wt cortical neuron cultures; type: cell-based; settings: 10 μM
[7] = system: Ca2+- L type calcium channel (dihydropyridine site); test: Calcium channel activity, Cerep radioligand displacement (dihydropyridine site, antagonist); type: binding
Procedure: [table] […] DMSO-treated conditions were used as controls and results were presented as percentage of the control (±SEM). […] FIGS. 3A, B and C). […] FIGS. 3A, B and C). […] D) In vitro calcium channel inhibition assays. Results were presented as percentage of inhibition (±SEM). […] One-way ANOVA was performed followed by post-hoc multiple comparison tests to determine the significance of differences between drug-treated vs DMSO control. *p<0.05, **p<0.01, ***p<0.001; N=3/condition except in A) nimodipine-treated conditions with N=20.

Aβ42 [8] = test: Long-term daily IP treatment of AD transgenic mice: brain Aβ42 levels; type: in vivo, mouse; settings: 2.5 mg/kg/day IP for 6 months
Procedure: as §3

APP/PS1 transgenic mouse = test: Long-term daily IP treatment of AD transgenic mice: NOR and Y maze behavior tests; type: in vivo; settings: 2.5 mg/kg/day IP for 6 months, vs vehicle Tg mice
Procedure: as §2

ApoE4 mice = test: Long-term daily oral treatment of ApoE KI mice: NOR test; type: in vivo, mouse; settings: 3 mg/kg/day oral for 6 months, vs vehicle-treated ApoE4 mice
Procedure: FIG. 7 Long-term in vivo treatment of Example 9 via daily oral administration at 3 mg/kg/day in ApoE KI mice. […] Data is presented as a percentage of ApoE3 control (vehicle-treated) time spent exploring novel objects. N=12-13/group. Cortical brain B) synj1 levels as well as C) pTau levels in ApoE4 mice (vehicle- or Example 9-treated) were compared to vehicle-treated controls (as 100%) in ApoE3 mice. N=6-9/group. One-way ANOVA was performed followed by post-hoc multiple comparison tests to determine the significance of differences between pairs of means. *p<0.05, **p<0.01.

Aβ40 [9] = test: Long-term daily oral treatment of ApoE KI mice: brain Aβ40 levels; type: in vivo, mouse; settings: 3 mg/kg/day oral
Procedure: (§4) FIG. 8 Long-term in vivo treatment of Example 9 via daily oral administration at 3 mg/kg/day in ApoE KI mice. […] N=5-8/group. Vehicle-treated conditions were used as controls and results were presented as percentage of the control (±SEM). One-way ANOVA was performed followed by post-hoc multiple comparison tests to determine the significance of differences between drug-treated vs DMSO control. *p<0.05, ***p<0.001.

Aβ42 [10] = test: Long-term daily oral treatment of ApoE KI mice: brain Aβ42 levels; type: in vivo, mouse; settings: 3 mg/kg/day oral
Procedure: as §4

[11] = Blood pharmacokinetics after IV or PO administration to male CD-1 mice
[12] = APP/PS1 transgenic mouse neocortex, vs Tg vehicle
[13] = male, CD-1, mouse, blood, iv, 1 mg/kg
[14] = male, CD-1, mouse, blood, po, 30 mg/kg

## COCCOC(=O)C1=C(C)NC(C)=C(C(=O)OC(C)C)C1c1cccc([N+](=O)[O-])c1 (racemic) [nimodipine]
synj1 5′-promoter region; 10 μM
  inhibition of synj1 transcription activities: Nimodipine at 10 μM achieved a 43.0% inhibition of synj1
synj1 5′-promoter region
  IC50: 3.99 µM
synj1 [1]; 10 μM
  reduction of synj1 protein levels: 26.6%
Aβ40 [2]; 10 μM
  reduction of Aβ40 levels: 47.0%
Aβ40 [2]; 10 μM, listed as Nimodipine
  reduction of Aβ40 levels: synj1 protein levels, a 47% reduction of Aβ40 levels and a
Aβ42 [3]
  reduction of Aβ42 levels: 12.1%
Aβ42 [3]; listed as Nimodipine
  reduction of Aβ42 levels: 12.1% reduction of Aβ42 levels. Example 9 at 5 μM exhibited a
synj1 [4]
  reduction of synj1 protein levels in brain neocortical regions: 75.8%
Aβ40 [5]; [12]
  decrease in soluble Aβ40 levels: 24.7%
[6]; blood, read-out: Blood conc.
  concentration at 1 h: 70 ng/mL
  concentration at 3 h: 62 ng/mL
[6]
  Kp at 1 h: 1.9
  Kp at 3 h: 1
[6]; brain, read-out: Brain conc.
  concentration at 1 h: 136 ng/mL
  concentration at 3 h: 62 ng/mL
In vivo
  bioavailability: 7%
In vivo; iv, 1 mg/kg
  AUC: 187 ng·h/mL
  Cmax: 341 ng/mL
  Vd: 3.29 L/kg
  clearance: 88.8 mL/min/kg
  half-life: 0.58 h
In vivo; po, 30 mg/kg
  AUC: 384 ng·h/mL
  Cmax: 114 ng/mL
  half-life: 7.27 h

## COCCOC(=O)C1=C(C)NC(C)=C(C(=O)OC(C)C)C1c1ccc(C(F)(F)F)cc1 (centres unmarked) [Example 6, 3-isopropyl 5-(2-methoxyethyl) 2,6-dimethyl-4-(4-(trifluoromethyl)phenyl)-1,4-dihydropyridine-3,5-dicarboxylate]
synj1 5′-promoter region
  IC50: 1.89 µM
Wt cortical neurons
  toxicity in cortical neuron culture: observed toxicities

## COCCOC(=O)C1=C(C)NC(C)=C(C(=O)OC(C)C)C1c1ccc(OC(F)(F)F)cc1 (centres unmarked) [Example 7]
Wt cortical neurons
  toxicity in cortical neuron culture: observed toxicities

## COCCOC(=O)C1=C(C)NC(C)=C(C(=O)OC(C)C)C1c1ccc(C(C)(C)C)cc1 (centres unmarked) [Example 9, 3-isopropyl 5-(2-methoxyethyl) 4-(4-(tert-butyl)phenyl)-2,6-dimethyl-1,4-dihydropyridine-3,5-dicarboxylate]
synj1 5′-promoter region; 3 μM
  inhibition of synj1 transcription activities: 44.4% inhibition.
synj1 5′-promoter region
  IC50: 3.33 µM
synj1 [1]; 5 μM
  reduction of synj1 protein levels: 62.4% and 62.3%
Aβ40 [2]; 5 μM
  reduction of Aβ40 levels: 82.6%
[7]; 1 nM
  calcium channel inhibition: no calcium channel
[7]; 0.1 μM
  calcium channel inhibition: 81.3%
[7]; versus nimodipine
  calcium channel inhibition compared to nimodipine (in words): attenuated calcium channel blockade effects; also recorded: Example 9 has attenuated calcium channel inhibition versus
Wt cortical neurons
  toxicity in cortical neuron culture: observed toxicities
synj1 [4]
  reduction of synj1 protein levels in brain neocortical regions: 99.4%
Aβ42 [8]; AD transgenic mice
  levels of insoluble Aβ42 in Tg animal brains (in words): trend of reduction
  levels of soluble Aβ42 in Tg animal brains (in words): Reduction
Aβ42 [8]; [12]
  decrease in insoluble Aβ42 levels: 27.4%
  decrease in soluble Aβ42 levels: insoluble Aβ42 levels, a 19.3% decrease in soluble Aβ42 levels,
Aβ40 [5]; AD transgenic mice
  levels of insoluble Aβ40 in Tg animal brains (in words): Reduction
Aβ40 [5]; [12]
  decrease in insoluble Aβ40 levels: 23.7%
  decrease in soluble Aβ40 levels: 12%
APP/PS1 transgenic mouse
  cognitive function in NOR and Y-maze tests (in words): cognitive improvements
ApoE4 mice
  cognitive function in NOR test (in words): cognitive improvements
Aβ40 [9]
  levels of soluble Aβ40 in ApoE4 animal brains (in words): reduction
Aβ42 [10]
  levels of insoluble Aβ42 in ApoE4 animal brains (in words): trend of reduction
  levels of soluble Aβ42 in ApoE4 animal brains (in words): reduction
[6]; compared with nimodipine
  CNS penetrability (in words): better than nimodipine
[6]; blood, read-out: Blood conc.
  concentration at 1 h: 518 ng/mL
  concentration at 3 h: 607 ng/mL
[6]
  Kp at 1 h: 1.2
  Kp at 3 h: 0.7
[6]; brain, read-out: Brain conc.
  concentration at 1 h: 604 ng/mL
  concentration at 3 h: 421 ng/mL
[11]; compared with nimodipine
  oral bioavailability (in words): better than nimodipine
[11]; [13]
  AUC: 189 ng·h/mL
  Cmax: 228 ng/mL
  Vd: 8.2 L/kg
  clearance: 85 mL/min/kg
  half-life: 1.68 h
[11]; male, CD-1, mouse, blood, oral, 30 mg/kg
  bioavailability: 73%
[11]; [14]
  AUC: 4120 ng·h/mL
  Cmax: 1010 ng/mL
  half-life: 0.84 h
